According to patent US20160145257A1, “SUBSTITUTED XANTHINES AND METHODS OF USE THEREOF” (Hydra Biosciences, Inc., priority 2013, published 2016):

target: T1, hTRPC5 (Homo sapiens, UniProt Q9UL62); assay: Whole-cell patch clamp, block of LaCl3-activated TRPC5 inward current; type: cell-based; settings: TRPC5-expressing HEK293 TREx cells, 80 μM LaCl3, inward current, IC50 estimated from 5 μM and 500 nM, read-out: hTRPC5 Patch La3+ Inwd (nM) (All Batches)
T1 construct: expressed in transfected cells; host or cells: HEK293 TREx cells with inducible TRPC5 expression
T1 sequence (Q9UL62 1-973): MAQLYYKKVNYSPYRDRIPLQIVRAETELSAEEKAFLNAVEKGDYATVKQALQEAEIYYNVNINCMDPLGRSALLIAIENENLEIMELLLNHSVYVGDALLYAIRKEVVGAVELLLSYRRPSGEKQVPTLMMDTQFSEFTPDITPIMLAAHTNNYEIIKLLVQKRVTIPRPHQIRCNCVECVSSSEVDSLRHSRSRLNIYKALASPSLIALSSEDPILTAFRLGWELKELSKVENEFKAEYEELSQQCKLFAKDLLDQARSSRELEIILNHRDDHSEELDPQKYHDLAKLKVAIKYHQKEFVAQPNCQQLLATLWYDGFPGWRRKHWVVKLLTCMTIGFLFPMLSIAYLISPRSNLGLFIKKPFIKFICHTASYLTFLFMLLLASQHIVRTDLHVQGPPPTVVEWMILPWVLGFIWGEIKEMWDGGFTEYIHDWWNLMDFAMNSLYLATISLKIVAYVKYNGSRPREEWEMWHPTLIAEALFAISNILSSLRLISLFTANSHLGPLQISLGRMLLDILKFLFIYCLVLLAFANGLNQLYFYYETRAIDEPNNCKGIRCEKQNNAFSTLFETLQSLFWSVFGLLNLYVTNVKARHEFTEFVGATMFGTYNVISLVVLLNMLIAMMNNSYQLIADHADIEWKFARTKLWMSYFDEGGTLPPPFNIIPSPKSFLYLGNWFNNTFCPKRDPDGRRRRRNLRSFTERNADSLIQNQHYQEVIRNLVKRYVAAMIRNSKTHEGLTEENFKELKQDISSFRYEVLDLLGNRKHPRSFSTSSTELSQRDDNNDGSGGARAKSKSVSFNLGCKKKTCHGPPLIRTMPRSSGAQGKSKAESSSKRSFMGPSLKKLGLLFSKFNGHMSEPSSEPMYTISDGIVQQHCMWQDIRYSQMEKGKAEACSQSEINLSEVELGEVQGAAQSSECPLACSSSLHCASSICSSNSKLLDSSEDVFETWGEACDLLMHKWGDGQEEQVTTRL
Protocol: In certain embodiments, exemplary compounds of Formula I and Formula II include the compounds described in Table 1 and in the Examples. A compound described herein may be tested for its ability to block both inward and outward currents through the TRPC5 channel, e.g., by an assay as described in Example 1. For example, IC50 of a compound of Formula I or Formula II was estimated by testing the compound at 5 μM and 500 nM. […] IC50 for a compound of Formula I or Formula II between 500 nM and 5 μM was similarly estimated. As shown, “A” refers to an IC50<100 nM. “B” refers to an IC50 between 100 nM and 500 nM. “C” refers to an IC50 between 500 nM and 1000 nM. “D” refers to an IC50 between 1 μM and 2 μM. “E” refers to an IC50 between 2 μM and 10 μM. “F” refers to […]. “ND” refers to compounds wherein the IC50 was not determined.
Patch clamp experiments permit the detection of currents through the TRPC5 channel in the cell line described above. In normal whole-cell patch clamp recordings, a glass electrode is brought into contact with a single cell and a high-resistance (gigaohm) seal is established with the cell membrane. The membrane is then ruptured to achieve the whole-cell configuration, permitting control of the voltage of the cell membrane and measurement of currents flowing across the membrane using the amplifier attached to the electrode and resulting in the replacement of cytoplasm with the pipette solution. A perfusion system permits control of the extracellular solution, including the addition of blockers and activators of the current. The current can be activated by including 1.4 μM free Ca^2+ in the pipette (intracellular) solution, and 80 μM LaCl3 in the extracellular solution.
TRPC5 cells were induced 20-48 hours, removed from growth plates, and replated at low density (to attain good single-cell physical separation) on glass coverslips for measurement. In some cases, cells were grown in low density overnight on glass coverslips. Patch clamp recordings were made in the whole-cell mode with a holding potential of −40 mV. Every 5 seconds, a voltage ramp was applied from −120 to +100 mV, 400 ms in duration. Currents elicited were quantified at −80 mV and +80 mV. The internal solution consisted of 140 mM cesium aspartate, 10 mM HEDTA, 2 mM CaCl2, 2.27 mM MgCl2 and 10 mM HEPES, pH 7.2, with 1,400 nM calculated free Ca^2+. The external solution consisted of 150 mM NaCl, 4.5 mM KCl, 1 mM MgCl2, 2 mM CaCl2, 10 mM HEPES, 10 mM glucose, 1 mM EGTA, pH 7.4. Upon addition of LaCl3, TRPC5 current was induced only in TRPC5-expressing cells and not in parental HEK293 TREx cells. Removal of the LaCl3 stimulus causes most of the current to go away. Potential blockers were tested for ability to block both inward and outward currents in the continued presence of LaCl3.
IC50 of a compound of Formula I or Formula II was estimated by testing the compound at 5 μM and 500 nM. […] IC50 for a compound of Formula I or Formula II between 500 nM and 5 μM was similarly estimated.

First: CCOC(=O)c1cccc(Oc2nc3c(c(=O)n(C)c(=O)n3C)n2Cc2cccc(Br)c2)c1 [Compound 57, Ethyl 3-(7-(3-bromobenzyl)-1,3-dimethyl-2,6-dioxo-2,3,6,7-tetrahydro-1H-purin-8-yloxy)benzoate]
Second: CCOC(=O)c1cccc(Cc2nc3c(c(=O)n(C)c(=O)n3C)n2Cc2cccc(Br)c2)c1 [Compound 102, ethyl 3-((7-(3-bromobenzyl)-1,3-dimethyl-2,6-dioxo-2,3,6,7-tetrahydro-1H-purin-8-yl)methyl)benzoate]
The IC50 of the first is lower: under 100 nM for the first, 1000 to 2000 nM for the second.

Compared with `Cn1c(=O)c2c(nc(SCc3ccccc3F)n2Cc2ccc(Cl)c(Cl)c2)n(C)c1=O` [Compound 58], `CN(Cc1ccccc1)c1nc2c(c(=O)n(C)c(=O)n2C)n1Cc1ccc(Cl)c(Cl)c1` [Compound 67] is higher in IC50: 100 to 500 nM for the first, 2000 to 10000 nM for the second.

First: Cn1c(=O)c2c(nc(SCCCC#N)n2Cc2cccc(Cl)c2)n(C)c1=O [Compound 62]
Second: CCCOCCc1nc2c(c(=O)n(C)c(=O)n2C)n1Cc1cccc(Cl)c1 [Compound 107]
The IC50 of the first is higher: 1000 to 2000 nM for the first, 500 to 1000 nM for the second. The second is the more potent here.

`Cn1c(=O)c2c(nc(Oc3cccc(C(F)(F)F)c3)n2Cc2ccc(Cl)cc2)n(C)c1=O` [Compound 73] and `CCc1ccccc1Oc1nc2c(c(=O)n(C)c(=O)n2C)n1Cc1ccc(Cl)cc1` [Compound 74] fall in the same range of IC50: 100 to 500 nM for the first, 100 to 500 nM for the second.

First: Cc1ccc(Oc2nc3c(c(=O)n(C)c(=O)n3C)n2Cc2cccc(Cl)c2)cc1 [Compound 76]
Second: Cn1c(=O)c2c(nc(Oc3cccc(Cl)c3)n2Cc2cccc(Br)c2)n(C)c1=O [Compound 110, 7-(3-bromobenzyl)-8-(3-chlorophenoxy)-1,3-dimethyl-1H-purine-2,6(3H,7H)-dione]
The IC50 of the first is higher: 2000 to 10000 nM for the first, 100 to 500 nM for the second.

First: Cn1c(=O)c2c(nc(CCCN3CCCC3)n2Cc2cccc(Br)c2)n(C)c1=O [Compound 81]
Second: CCCOCCCc1nc2c(c(=O)n(C)c(=O)n2C)n1Cc1cccc(Br)c1 [Compound 82, 7-(3-bromobenzyl)-1,3-dimethyl-8-(3-propoxypropyl)-1H-purine-2,6(3H,7H)-dione]
The IC50 of the first is higher: 2000 to 10000 nM for the first, 1000 to 2000 nM for the second.

First: CCOC(=O)C(C)(C)CCc1nc2c(c(=O)n(C)c(=O)n2C)n1Cc1cccc(Br)c1 [Compound 83]
Second: CCOC(=O)C(C)(C)Cc1nc2c(c(=O)n(C)c(=O)n2C)n1Cc1cccc(Br)c1 [Compound 97, Ethyl 3-(7-(3-bromobenzyl)-1,3-dimethyl-2,6-dioxo-2,3,6,7-tetrahydro-1H-purin-8-yl)-2-2-dimethylpropanoate]
The IC50 of the first is higher: 2000 to 10000 nM for the first, 100 to 500 nM for the second. The second is the more potent here.

Compared with `CCOC(=O)CCC(C)(C)c1nc2c(c(=O)n(C)c(=O)n2C)n1Cc1cccc(Br)c1` [Compound 84], `CCOC(=O)CC(C)(C)c1nc2c(c(=O)n(C)c(=O)n2C)n1Cc1cccc(Br)c1` [Compound 96, Ethyl 3-(7-(3-bromobenzyl)-1,3-dimethyl-2,6-dioxo-2,3,6,7-tetrahydro-1H-purin-8-yl)-3-methylbutanoate] is lower in IC50: 1000 to 2000 nM for the first, 500 to 1000 nM for the second.

First: CCOC(=O)CC(C)c1nc2c(c(=O)n(C)c(=O)n2C)n1Cc1cccc(Br)c1 (stereo not shown) [Compound 86]
Second: CCOC(=O)C(C)Cc1nc2c(c(=O)n(C)c(=O)n2C)n1Cc1cccc(Br)c1 (stereo not shown) [Compound 87]
The IC50 of the first is lower: 100 to 500 nM for the first, 500 to 1000 nM for the second.

Compared with `CCCOCCc1nc2c(c(=O)n(C)c(=O)n2C)n1Cc1cccc(OC(F)(F)F)c1` [Compound 88], `CCCOCCc1nc2c(c(=O)n(C)c(=O)n2C)n1Cc1ccc(OC(F)(F)F)cc1` [Compound 109] is higher in IC50: 500 to 1000 nM for the first, 1000 to 2000 nM for the second.

`CCCOCCc1nc2c(c(=O)n(C)c(=O)n2C)n1Cc1ccc(OC)cc1` [Compound 89] and `CCCOCCc1nc2c(c(=O)n(C)c(=O)n2C)n1Cc1ccc(C)cc1` [Compound 94, 1,3-dimethyl-7-(4-methylbenzyl)-8-(2-propoxyethyl)-1H-purine-2,6(3H,7H)-dione] fall in the same range of IC50: 2000 to 10000 nM for the first, 2000 to 10000 nM for the second.

First: CCCOCCc1nc2c(c(=O)n(C)c(=O)n2C)n1Cc1cccc(C)c1 [Compound 90]
Second: CCCOCCc1nc2c(c(=O)n(C)c(=O)n2C)n1Cc1cccc(F)c1 [Compound 92]
The IC50 of the first is lower: 1000 to 2000 nM for the first, 2000 to 10000 nM for the second. The first is the more potent here.

Compared with `CCCOCCc1nc2c(c(=O)n(C)c(=O)n2C)n1Cc1cccc(OC)c1` [Compound 91], `CCCOCCc1nc2c(c(=O)n(C)c(=O)n2C)n1Cc1ccc(Cl)cc1` [Compound 93] is lower in IC50: 2000 to 10000 nM for the first, 500 to 1000 nM for the second.

First: CCCOCCc1nc2c(c(=O)n(C)c(=O)n2C)n1Cc1ccc(Br)cc1 [Compound 95, 7-(4-bromobenzyl)-1,3-dimethyl-8-(2-propoxyethyl)-1H-purine-2,6(3H,7H)-dione]
Second: CCCOCCc1nc2c(c(=O)n(C)c(=O)n2C)n1Cc1ccc(F)cc1 [Compound 108]
The IC50 of the first is lower: 1000 to 2000 nM for the first, 2000 to 10000 nM for the second.

First: CCCCC(O)c1nc2c(c(=O)n(C)c(=O)n2C)n1Cc1cccc(Br)c1 (stereo not shown) [Compound 98]
Second: CCCCC(=O)c1nc2c(c(=O)n(C)c(=O)n2C)n1Cc1cccc(Br)c1 [Compound 105, 7-(3-bromobenzyl)-1,3-dimethyl-8-pentanoyl-1H-purine-2,6(3H,7H)-dione]
The IC50 of the first is higher: 2000 to 10000 nM for the first, under 100 nM for the second. The second is the more potent here.

First: CCCOCCOc1nc2c(c(=O)n(C)c(=O)n2C)n1Cc1cccc(Br)c1 [Compound 99, 7-(3-bromobenzyl)-1,3-dimethyl-8-(2-propoxyethoxy)-1H-purine-2,6(3H,7H)-dione]
Second: Cn1c(=O)c2c(nc(Oc3cccc(F)c3)n2Cc2cccc(Br)c2)n(C)c1=O [Compound 111, 7-(3-bromobenzyl)-8-(3-fluorophenoxy)-1,3-dimethyl-1H-purine-2,6(3H,7H)-dione]
The IC50 of the first is lower: 100 to 500 nM for the first, 1000 to 2000 nM for the second. The first is the more potent here.

`CCc1coc(C(C)(C)Sc2nc3c(c(=O)n(C)c(=O)n3C)n2Cc2cccc(Br)c2)n1` [Compound 100, 7-(3-bromobenzyl)-8-(2-(4-ethyloxazol-2-yl)propan-2-ylthio)-1,3-dimethyl-1H-purine-2,6(3H,7H)-dione] and `CCc1coc(CSc2nc3c(c(=O)n(C)c(=O)n3C)n2Cc2cccc(OC(F)(F)F)c2)n1` [Compound 106, 8-((4-ethyloxazol-2-yl)methylthio)-1,3-dimethyl-7-(3-(trifluoromethoxy)benzyl)-1H-purine-2,6(3H,7H)-dione] fall in the same range of IC50: 100 to 500 nM for the first, 100 to 500 nM for the second.

`Cn1c(=O)c2c(nc(Cc3cccc(C#N)c3)n2Cc2cccc(Br)c2)n(C)c1=O` [Compound 101] and `Cc1coc(-c2cccc(Cc3nc4c(c(=O)n(C)c(=O)n4C)n3Cc3cccc(Br)c3)c2)n1` [Compound 104] fall in the same range of IC50: 2000 to 10000 nM for the first, 2000 to 10000 nM for the second.

Compound `Cc1coc(-c2cccc(Oc3nc4c(c(=O)n(C)c(=O)n4C)n3Cc3cccc(Br)c3)c2)n1` [Compound 103, 7-(3-bromobenzyl)-1,3-dimethyl-8-(3-(4-methyloxazol-2-yl)phenoxy)-1H-purine-2,6(3H,7H)-dione] has an IC50 of 2000 to 10000 nM.
